According to patent EP0150638A1, “Pyrethroid composition for the local treatment of skin diseases” (CENTRE DE RECHERCHE D'APPLICATIONS PHARMACEUTIQUES …, priority 1983, dated 1985):

Assay: primary cutaneous irritation test
Type: in vivo, lapin
Details: rabbit; compared with other allethrin isomers, natural pyrethrin, or hydrocarbon-containing compositions
Description: Le pouvoir irritant des compositions selon l'invention a été étudié chez le lapin, par un test d'irritation cutanée primaire, dont les conditions de réalisation sont définies dans le Journal Officiel de la République Française du 21 avril 1971, complété par celui du 5 juin 1973. Il a été comparé à celui des compositions où des pyréthrines naturelles remplaçaient les pyréthrinoldes de l'invention et à celui de compositions résultant du mélange des pyréthrinoides et d'huile de vaseline ou d'isododécane.

C=CCC1=C(C)[C@@H](OC(=O)[C@@H]2[C@@H](C=C(C)C)C2(C)C)CC1=O [pyréthrinoide de l'exemple 1, d-transchrysanthémate de d-alléthrolone]
pouvoir irritant (comparison in words): beaucoup moins irritant
